Test results as given in patent US10473667B2, “Methods apparatuses and systems for detecting and quantifying phosphoproteins” (Oregon Health & Science University, priority 2012, dated 2019).

Experiments:
STAT5* [1] = assay: QD probe assay for STAT5* in whole tumor cells; format: cell-based; conditions: tumor cells treated with Gleevec vs control (untreated) tumor cells, FIGS. 9A-9B
From the text: Briefly; control tumor cells and tumor cells treated with Gleevec™ were processed (fixing, permeabilization, blocking, washing, etc.) to specifically bind optimized concentrations of QD-anti-STAT5* antibody probes to STAT5* protein kinase. After washing, the cells were imaged in multiple slices using the imaging techniques described above, covering the entire 3D space of the cells. QD probe bound to the cells was then compiled and projected on the cell for quantification.

STAT5* [2] = assay: QD-STAT5* / QD-pSTAT5 probe assay in K562 CML cells; format: cell-based; conditions: clonal K562 CML cells, FIG. 11A
From the text: Relative amounts of bound QD probes in each condition were estimated using the algorithms described above.
An epifluorescent microscope was used to acquire images of cells labeled with QD-pCRKL and QD-pSTAT5 probes, including are digital images of tumor cells (FIG. 10A), tumor cells treated with dasatinib (FIG. 10B), and control cells with antibody omitted (FIG. 10C), Average phosphoprotein levels were computed as the average number of QD probes/cell.

| SMILES | STAT5* activation (QD-anti-STAT5* probe binding) (STAT5* [1]) | heterogeneity in pSTAT5 activity (SD of QDs/cell) (STAT5* [2]) |
| --- | --- | --- |
| Cc1ccc(NC(=O)c2ccc(CN3CCN(C)CC3)cc2)cc1Nc1nccc(-c2cccnc2)n1 [Gleevec™, imatinib] | marked decrease in STAT5* activation |  |
| CC[C@H](C)C(=O)O[C@H]1C[C@@H](C)C=C2C=C[C@H](C)[C@H](CC[C@@H]3C[C@@H](O)CC(=O)O3)[C@H]21 [lovastatin] |  | reduced |
